Tested on: Yeast strain SKAM4 RAD54-LacZ reporter
Test: Radarscreen with luminescence and S9 metabolic activation
Settings: analysed with S9 compared with without S9; 6 hours at 30° C.; 2% S9
Protocol: Yeast strain SKAM4 bears a RAD54-LacZ reporter construct, which is responsive to agents that affect the integrity of its genomic DNA. Compounds supplied to the growth medium can be evaluated for genotoxicity by determining their effect on reporter gene expression. Reporter activity is measured by adding Beta-Glo® cell lyses buffer, containing a beta-galactosidase substrate, to the yeast culture. The substrate is cleaved by beta-galactosidase to luciferin and galactose. Luciferin is then used in a luciferase reaction to generate light. Metabolic activation of the compounds is obtained by adding post mitochondrial supernatant S9. […]
OD595 of the overnight cultures has to be determined. […]
600 μl S9-mixture is added to 5280 μl of the diluted culture and 600 μl buffer without S9 to 5280 μl of the diluted culture (these are quantities to fill 1 plate). […] The OD595 is measured after the plates have been vortexed rigorously to resuspend the precipitated yeast cells. […]
50 μl Beta-Glo® cell lyses buffer is added to the wells and the plate is vortexed for 45-60 min whereafter luminescence is measured. […]
Luminescence read out blanc correction is performed by subtraction of the luminescence value of medium without yeast cells from the luminescence read out of a sample with compound and dividing it by the corrected and normalized OD595 value. […]

SMILES: CC[n+]1c(-c2ccccc2)c2cc(N)ccc2c2ccc(N)cc21 [ethidium bromide]
- signal (induction factor): higher signal when analysed with S9 than when analysed without S9
